Where only a bound is given, the exact number is not on record here.

Assay [1] concerns the target T1, AhR (Mus musculus, UniProt P30561).
T1 sequence (P30561 1-848): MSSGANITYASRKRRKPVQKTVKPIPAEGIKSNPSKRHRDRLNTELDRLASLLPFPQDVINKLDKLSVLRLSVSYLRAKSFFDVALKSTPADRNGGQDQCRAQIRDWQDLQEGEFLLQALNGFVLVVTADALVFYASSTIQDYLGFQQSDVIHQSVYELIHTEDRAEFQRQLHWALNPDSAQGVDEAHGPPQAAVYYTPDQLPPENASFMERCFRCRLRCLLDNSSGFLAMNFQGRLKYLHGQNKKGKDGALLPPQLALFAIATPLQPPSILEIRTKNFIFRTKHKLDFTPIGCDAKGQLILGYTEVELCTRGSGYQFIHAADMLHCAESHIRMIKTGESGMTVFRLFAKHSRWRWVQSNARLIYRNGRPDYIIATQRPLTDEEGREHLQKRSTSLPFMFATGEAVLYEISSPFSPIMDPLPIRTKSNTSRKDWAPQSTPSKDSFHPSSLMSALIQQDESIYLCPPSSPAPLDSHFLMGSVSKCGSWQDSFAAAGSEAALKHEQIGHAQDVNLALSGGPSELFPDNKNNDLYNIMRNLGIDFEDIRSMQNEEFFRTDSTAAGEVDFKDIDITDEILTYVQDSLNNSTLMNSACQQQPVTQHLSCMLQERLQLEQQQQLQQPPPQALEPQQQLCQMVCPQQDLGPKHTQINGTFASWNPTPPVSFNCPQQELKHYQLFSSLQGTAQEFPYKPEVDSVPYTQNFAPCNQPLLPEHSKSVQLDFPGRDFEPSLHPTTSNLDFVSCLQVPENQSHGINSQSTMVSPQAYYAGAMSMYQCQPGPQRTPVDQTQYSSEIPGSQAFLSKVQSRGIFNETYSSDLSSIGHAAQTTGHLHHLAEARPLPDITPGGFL
In words: In vitro assay 2: XRE-luciferase reporter assay, antagonism in mouse cell line (Hepa1c1c7). In kind it is cell-based. The conditions noted are these: Hepa1c1c7 XRE-Luc, cells treated with kynurenine (#), 6 hours. The text has this:
In Vitro XRE-Luciferase Reporter Assay (In Vitro Assay 1, 2, 3)
AhR activation leads the induction of target gene expression such as CYP1A1 and CYP1B1 by AhR binding to AhR-responsive DNA elements also known as xenobiotics responsive elements (XRE). The assay for measuring AhR activity herein is the luciferase assay using cell lines transfected with luciferase reporter plasmid containing XREs at the upstream of the reporter gene. Cells transfected with XRE-luciferase reporter (XRE-Luc) plasmid drive luciferase activity reflecting activation and inhibition of AhR in the cells. In addition to transfection with XRE-reporter vector, cells were co-transfected with Nano-luciferase reporter gene construct (Nano-Luc) containing constitutively active promoter as internal control. Kynurenine (an endogenous AhR agonist) was used to stimulate cells to test antagonistic properties of the compounds. The half-maximal inhibitory concentration (IC50) or half-maximal effective concentration (EC50) value was calculated using nonlinear regression (four parameters) with Prism8.0 software (GraphPad).
In Vitro Assay 2: Antagonism in Mouse Cell Line
Hepa1c1c7 (murine liver cancer cell line) cells co-transfected with XRE-Luc and Nano-Luc plasmids were plated in complete medium and incubated overnight at 37° C. in a CO2 incubator. Following incubation, cells were treated with AhR activating ligands such as kynurenic acid, kynurenine(#) with or without test compounds for 6 hours. Firefly luciferase and Nano-luciferase activity was measured using Nano-glo Luciferase kit (Promega) and relative luciferase activity (Firefly/Nano-Luc) was used to calculate IC50 values. The relative luciferase activity was further normalized with agonists alone group as the maximum control and the vehicle group as the minimum control. (IC50 Values are grouped as A, B, C and D, whereby A: IC50<0.01 μM; B: 0.01<IC50<0.1 μM; C: 0.1<IC50<1.0 μM; D: IC50>1.0 μM)
For orientation: Reporter assays use an easily measured gene product as a stand-in for the process of interest.

Assay [2] deals with T2, AhR (Homo sapiens, UniProt P35869).
T2 construct: host or cells: HepG2
T2 sequence (P35869 11-848): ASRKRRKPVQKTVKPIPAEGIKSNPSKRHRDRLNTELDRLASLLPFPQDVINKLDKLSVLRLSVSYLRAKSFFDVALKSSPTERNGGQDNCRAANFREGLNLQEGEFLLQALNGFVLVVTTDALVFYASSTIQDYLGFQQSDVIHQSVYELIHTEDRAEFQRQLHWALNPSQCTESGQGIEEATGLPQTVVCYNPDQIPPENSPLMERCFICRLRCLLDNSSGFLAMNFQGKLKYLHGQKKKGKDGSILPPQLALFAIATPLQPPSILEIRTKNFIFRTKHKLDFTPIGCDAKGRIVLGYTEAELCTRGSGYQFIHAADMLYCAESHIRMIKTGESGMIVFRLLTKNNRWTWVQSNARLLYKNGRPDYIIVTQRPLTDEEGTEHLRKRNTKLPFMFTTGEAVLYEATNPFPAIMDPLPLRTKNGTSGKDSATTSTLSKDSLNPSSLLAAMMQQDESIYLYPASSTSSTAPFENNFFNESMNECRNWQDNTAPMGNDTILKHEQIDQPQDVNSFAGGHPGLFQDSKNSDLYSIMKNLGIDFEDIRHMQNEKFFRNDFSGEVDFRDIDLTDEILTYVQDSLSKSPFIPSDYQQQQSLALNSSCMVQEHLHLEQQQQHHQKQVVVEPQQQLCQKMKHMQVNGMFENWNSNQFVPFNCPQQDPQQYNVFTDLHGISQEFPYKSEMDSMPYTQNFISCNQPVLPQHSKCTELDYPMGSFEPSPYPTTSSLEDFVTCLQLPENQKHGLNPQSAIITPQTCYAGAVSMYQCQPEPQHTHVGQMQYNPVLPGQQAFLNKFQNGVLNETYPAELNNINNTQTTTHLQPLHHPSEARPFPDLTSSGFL
In words: In vitro assay 1: XRE-luciferase reporter assay, antagonism in human cell line (HepG2). The assay is classed as cell-based. The following applies: HepG2 XRE-luciferase, cells treated with kynurenine 200 μM (no *), 6 hours; read-out: Assay 1: AhR-Luc Human Antagonism (IC50). An outline of the steps:
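HepG2 cells carrying XRE-firefly luciferase (transient or stable) plus constitutive Nano-Luc control, stimulated 6 h with kynurenine (50 or 200 μM) with or without compound. Firefly/Nano-Luc ratio normalized to kynurenine-alone (maximum) and vehicle (minimum); IC50 by four-parameter nonlinear regression.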

`CC(CO)n1cnc2c(-c3cccnc3)nc(-c3ccc(Cl)cc3)cc2c1=O` (centres unmarked) [Example 46, 6-(4-chlorophenyl)-3-(1-hydroxypropan-2-yl)-8-(pyridin-3-yl)pyrido[3,4-d]pyrimidin-4(3H)-one]: the concentration for half-maximal inhibition (IC50) against AhR [1] and at AhR [2] was less than 10 nM in each case.

These data come from US20230147257A1 (DONG-A ST CO., LTD., priority 2020, published 2023).
